Tests used:
[1] = test system: rat visual cortex slices; test: Long-term potentiation in visual cortex slice; format: cell-based; settings: LTP at 30 min after induction; for threshold dose for dose-dependent facilitation of LTP: rat visual cortex slices, drug infused 20 min before theta burst stimulation
Description: Following decapitation of the anesthetized rat, the brain was rapidly removed and immersed in ice-cold artificial cerebrospinal fluid (ACSF) containing (in mM) NaCl 124, KCl 3, KH2PO4 1.25, CaCl2 3.4, MgSO4 2.5, NaHCO3 26, and D-glucose 10. A block of visual cortex was created by removing the frontal ⅔ portion of the brain and the cerebellum. Coronal visual cortex slices of 350 μm thick were prepared from young adult (200-300 g) male Sprague-Dawley rats using a vibratome (VT 1000 S; Leica). The slices were maintained in an interface recording chamber perfused with preheated ACSF. Slices were continuously perfused with this solution at a rate of 1.00-1.50 ml/min while the surface of the slices was exposed to warm, humidified […] and maintained at 31±1° C. Visual cortex slices were allowed to recover for 1 hr before recording began. A single stimulating and recording electrode was placed in layer IV and III, respectively, to generate and record field excitatory postsynaptic potentials (fEPSPs). Pulses were administered at 0.05 Hz using a current that produced a fEPSP that is 50% of the maximum spike free response. An input-output (IO) curve was done to determine the stimulation needed to achieve a stable baseline. Following a 15 min stable baseline recording period, a train of 5 theta bursts (each burst containing four pulses at 100 Hz with an inter-burst interval of 200 ms) was delivered to the slice. This was repeated 2 additional times with a 1 minute inter-train interval, and the level of LTP was recorded for at least 30 min. Changes in amplitude of the synaptic response were used to measure the extent of LTP, since the amplitude was determined to be the more consistent parameter than the slope of the response. Control LTP values were obtained from slices not treated with drug. Different slices were used to study drug effects on LTP. Compound 4-bromo-N-(imidazolidin-2-ylidene)-1H-benzimidazol-5-amine or (S)-(3-(1-(1H-imidazol-4-yl)ethyl)-2-methylphenyl)methanol) was infused after 15 min baseline recording for a duration of 20 minutes followed by LTP induction. Drug washout began 5 minutes after tetanization. Recording of the amplitude before, during, and after drug infusion was continuously done at 0.05 Hz. Statistical comparisons were done with LTP values recorded at 30 minutes after induction for drug-treated vs control slices (non-paired t-test).
In brief, brain slices from primary visual cortex were prepared and recording of evoked field responses was done as described in the ‘general procedure’ section. A typical LTP run began with establishing a stable baseline, then treatment for 20 min with 4-bromo-N-(imidazolidin-2-ylidene)-1H-benzimidazol-5-amine followed by LTP induction via brief high-frequency theta burst stimulation (TBS) and drug washout 5 min after TBS, and ended after monitoring the amount of LTP for at least 30 min. Control LTP was measured in a group of separate slices within the same chamber infused with aCSF. The amount of LTP present at 30 min after induction was used to compare drug effects at different concentrations relative to the control group. […] The percent increase in LTP was shown relative to the pre-LTP baseline for each condition.
The percent increase in LTP was shown relative to the pre-LTP baseline for each condition.

[2] = rats, after oral dose of brimonidine tartrate (Acheampong et al., Xenobiotica 2007); cited from earlier work

**Q.** Which “LTP compared to control slices” value ([1]; 3 nM) does the source give for `Brc1c(N=C2NCCN2)ccc2[nH]cnc12` [4-bromo-N-(imidazolidin-2-ylidene)-1H-benzimidazol-5-amine] here?
**A.** Its value is “significantly facilitated”.

**Q.** And the “LTP compared to control slices” value ([1]; 30 nM)?
**A.** The value was “significantly facilitated”.

**Q.** What about the “LTP compared to control slices” value ([1]; 300 nM) of the same molecule?
**A.** The value was “significantly facilitated”.

**Q.** And the “threshold dose for dose-dependent facilitation of LTP” value [1]?
**A.** The value was 3 nM.

**Q.** And the “amount found in urine” value [2]?
**A.** Its value is “trace amounts”.

**Q.** For `Cc1c(CO)cccc1[C@H](C)c1c[nH]cn1` [(S)-(3-(1-(1H-imidazol-4-yl)ethyl)-2-methylphenyl)methanol], which “LTP compared to control slices” value ([1]; 100 nM) is on record?
**A.** The value was “significantly facilitated”.

**Q.** What about the “LTP compared to control slices” value ([1]; 300 nM) of the same molecule?
**A.** Its value is “significantly facilitated”.

**Q.** What about the “threshold dose for dose-dependent facilitation of LTP” value [1] of the same molecule?
**A.** The value was 100 nM.
